Reference: patent US10336729B2, “4-cyano-benzyl carbamimidoylcarbamate derivatives and their use as AOC3 inhibitors” (Boehringer Ingelheim International GmbH, priority 2016, dated 2019)

These compounds were tested against AOC3 (Homo sapiens (Human), UniProt Q16853) (assay: MAO-Glo AOC3 assay). Conditions: recombinant CHO cells overexpressing AOC3 enzyme.
Type: biochemical
Text: The MAO-Glo™ Assay (commercial available from PROMEGA, #V1402) provides a sensitive method for the measurement of monoamine oxidase (MAO) activity (Valley, M. P. et al., 2006, Anal. Biochem. 359: 238-246) from a variety of tissues, biofluids or recombinant expressed or purified enzymes. As substrate a derivate of the beetle luciferin ((4S)-4,5-dihydro-2-(6-hydroxybenzothiazolyl)-4-thiazole-carboxylic acid) is used, which is oxidized at a primary amine moiety. After a spontaneous elimination and a catalyzed esterase reaction, the turnover of the luciferine by the luciferase is recorded as a signal of AOC3 activity.
An aliquot of 3 μL of the compound dilution is added to a 384 well plate (Optiplate, PS, flat bottom, white, PERKIN ELMER, #6007290) with a final DMSO concentration of 6.6%. Recombinant CHO cells, overexpressing the human (1500 cells/well), mouse (1000 cells/well) or rat (500 cells/well) AOC3 enzyme are diluted in reaction buffer and added in a volume of 15 μL to the wells. After incubation for 20 minutes at 37° C., 2 μL of MAO substrate (dissolved in DMSO at 16 mM, adjusted to assay concentration in reaction buffer to a final assay concentration of 20 μM) is added and further incubated for 60 minutes at 37° C. The turnover of the substrate is determined by the addition of 20 μL of the detection-mix which was generated by the addition of reconstitution buffer with esterase (PROMEGA, #V1402) to the luciferine detection reagent (PROMEGA, #V1402). After an incubation period of 20 minutes, the luminescent signal is measured with Envision 2104 Multilabel Reader (PERKIN ELMER).

Sequence of AOC3 (Q16853 whole entry): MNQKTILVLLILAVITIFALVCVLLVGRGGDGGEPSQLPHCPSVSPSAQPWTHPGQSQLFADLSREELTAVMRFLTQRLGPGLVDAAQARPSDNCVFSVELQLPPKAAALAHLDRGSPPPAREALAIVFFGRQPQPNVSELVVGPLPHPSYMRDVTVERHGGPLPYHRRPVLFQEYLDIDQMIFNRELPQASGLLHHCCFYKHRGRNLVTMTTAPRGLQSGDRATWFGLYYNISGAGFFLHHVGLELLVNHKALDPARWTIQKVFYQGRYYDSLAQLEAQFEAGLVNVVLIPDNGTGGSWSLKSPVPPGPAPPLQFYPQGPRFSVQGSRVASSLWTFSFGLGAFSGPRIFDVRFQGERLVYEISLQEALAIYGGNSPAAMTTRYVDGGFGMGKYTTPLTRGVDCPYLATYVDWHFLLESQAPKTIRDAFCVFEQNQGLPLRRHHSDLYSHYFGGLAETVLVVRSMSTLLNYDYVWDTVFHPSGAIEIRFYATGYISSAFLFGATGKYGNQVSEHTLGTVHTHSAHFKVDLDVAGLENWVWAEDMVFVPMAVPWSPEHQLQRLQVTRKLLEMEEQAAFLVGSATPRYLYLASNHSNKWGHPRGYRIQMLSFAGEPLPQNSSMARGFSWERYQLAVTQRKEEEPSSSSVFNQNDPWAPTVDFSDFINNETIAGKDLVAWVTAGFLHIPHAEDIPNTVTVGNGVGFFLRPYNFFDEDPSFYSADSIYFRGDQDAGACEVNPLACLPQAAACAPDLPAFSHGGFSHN

SMILES | IC50 [nM]
N#Cc1ccc(COC(=O)NC(=N)N)c(F)c1N1CCC(c2ccc(F)cc2)CC1 [Example 1.031] | 70
N#Cc1ccc(COC(=O)NC(=N)N)c(F)c1N1CCN(c2nccs2)CC1 [Example 1.036] | 27
CS(=O)(=O)c1ccc(N2CCN(c3c(C#N)ccc(COC(=O)NC(=N)N)c3F)CC2)cc1 [Example 1.002] | 6
N#Cc1ccc(C2CN(c3c(C#N)ccc(COC(=O)NC(=N)N)c3F)C2)cc1 [Example 1.013] | 19
N#Cc1ccc(COC(=O)NC(=N)N)c(F)c1N1CCN(c2cccnc2)CC1 [Example 1.012] | 6
N#Cc1ccc(COC(=O)NC(=N)N)c(F)c1N1CCN(c2ccccn2)CC1 [Example 1.051] | 271
N#Cc1ccc(COC(=O)NC(=N)N)c(F)c1N1CCC(N2CCC(C(N)=O)CC2)CC1 [Example 1.024] | 50
N#Cc1ccc(COC(=O)NC(=N)N)c(F)c1N1CCC(c2ccccc2)CC1 [Example 1.029] | 71
COc1ncc(N2CCN(c3cc(COC(=O)NC(=N)N)cc(F)c3C#N)CC2)cn1 [Example 1.020] | 70
CCOc1cc(C2CCN(c3c(C#N)ccc(COC(=O)NC(=N)N)c3F)CC2)ccn1 [Example 1.016] | 12
N#Cc1ccc(COC(=O)NC(=N)N)c(F)c1N1CCN(c2ccncn2)CC1 [Example 1.001] | 7
CC(=O)N1CCN(C2CCN(c3c(C#N)ccc(COC(=O)NC(=N)N)c3F)CC2)CC1 [Example 1.003] | 67
N#Cc1ccc(COC(=O)NC(=N)N)c(F)c1N1CCN(c2ccnnc2)CC1 [Example 1.006] | 5
N#Cc1ccc(N2CCN(c3c(C#N)ccc(COC(=O)NC(=N)N)c3F)CC2)c(F)c1 [Example 1.045] | 29
N#Cc1ccc(COC(=O)NC(=N)N)c(F)c1N1CCN(C2CCOCC2)CC1 [Example 1.038] | 579
COc1ccc(C2CCN(c3c(C#N)ccc(COC(=O)NC(=N)N)c3F)CC2)cc1 [Example 1.048] | 82
N#Cc1ccc(N2CCN(c3c(C#N)ccc(COC(=O)NC(=N)N)c3F)CC2)cc1 [Example 1.009] | 3
CC(=O)N1CCC(N2CCN(c3c(C#N)ccc(COC(=O)NC(=N)N)c3F)CC2)CC1 [Example 1.008] | 397

SMILES | IC50 [nM]
N#Cc1ccc(COC(=O)NC(=N)N)c(F)c1N1CCC(c2ccc(C(=O)O)cc2)CC1 [Example 1.035] | 4
CN(C)C(=O)c1ccc(N2CCN(c3c(C#N)ccc(COC(=O)NC(=N)N)c3F)CC2)cc1 [Example 1.026] | 70
N#Cc1ccc(COC(=O)NC(=N)N)c(F)c1N1CCC(c2ccc(Cl)cc2)CC1 [Example 1.049] | 102
CN(C)Cc1ccc(C2CCN(c3c(C#N)ccc(COC(=O)NC(=N)N)c3F)CC2)cc1 [Example 1.044] | 10
N#Cc1ccc(COC(=O)NC(=N)N)c(F)c1N1CC=C(c2ccc(F)cc2)CC1 [Example 1.033] | 24
CN1CCN(C2CCN(c3c(C#N)ccc(COC(=O)NC(=N)N)c3F)CC2)CC1=O [Example 1.018] | 169
CS(=O)(=O)c1ccc(N2CCN(c3c(C#N)ccc(COC(=O)NC(=N)N)c3F)CC2)c(F)c1 [Example 1.042] | 46
COc1cnc(C2CCN(c3c(C#N)ccc(COC(=O)NC(=N)N)c3F)CC2)nc1 [Example 1.032] | 110
N#Cc1ccc(COC(=O)NC(=N)N)c(F)c1N1CCN(c2ccc(F)cc2)C(=O)C1 [Example 1.050] | 5
N#Cc1ccc(COC(=O)NC(=N)N)c(F)c1N1CCN(C2CCCC2)C(=O)C1 [Example 1.053] | 15
N#Cc1ccc(COC(=O)NC(=N)N)c(F)c1N1CCC(c2cn3ccccc3n2)CC1 [Example 1.025] | 5
CC(=O)N1CCC(C2CN(c3c(C#N)ccc(COC(=O)NC(=N)N)c3F)C2)CC1 [Example 1.010] | 25
N#Cc1ccc(COC(=O)NC(=N)N)c(F)c1N1CCC(c2nccs2)CC1 [Example 1.030] | 65
Cc1ccc(N2CCN(c3c(C#N)ccc(COC(=O)NC(=N)N)c3F)CC2)nc1 [Example 1.039] | 42
N#Cc1ccc(COC(=O)NC(=N)N)c(F)c1N1CCC(c2ccncc2)C1 (centres unmarked) [Example 1.019] | 17
COC(=O)N1CCC(C2CCN(c3c(C#N)ccc(COC(=O)NC(=N)N)c3F)CC2)CC1 [Example 1.027] | 4
COc1cccc(N2CCN(c3c(C#N)ccc(COC(=O)NC(=N)N)c3F)CC2)c1 [Example 1.021] | 21

Results, then the compound that gave them:

IC50 [nM] | SMILES
12 | Cc1cnc(C2=CCN(c3c(C#N)ccc(COC(=O)NC(=N)N)c3F)CC2)o1 [Example 1.071]
33 | N#Cc1ccc(COC(=O)NC(=N)N)c(F)c1N1CCC(c2nnco2)CC1 [Example 2.006]
9 | N#Cc1ccc(COC(=O)NC(=N)N)c(F)c1N1CCC(C2CCN(S(N)(=O)=O)CC2)CC1 [Example 1.079]
502 | N#Cc1ccc(COC(=O)NC(=N)N)c(F)c1N1CCC(c2ccc(C(F)(F)F)cc2)CC1 [Example 1.084]
30 | COc1cccc(C2=CCN(c3c(C#N)ccc(COC(=O)NC(=N)N)c3F)CC2)c1 [Example 1.061]
470 | N#Cc1ccc(COC(=O)NC(=N)N)c(F)c1N1CC(c2ccccn2)C1 [Example 1.087]
34 | N#Cc1ccc(COC(=O)NC(=N)N)c(F)c1N1CCN(c2cccnn2)CC1 [Example 1.083]
57 | N#Cc1ccc(COC(=O)NC(=N)N)c(F)c1N1CCN(c2ncncn2)CC1 [Example 1.082]
6 | N#Cc1ccc(COC(=O)NC(=N)N)c(F)c1N1CC=C(c2ccc(Cl)cc2)CC1 [Example 1.057]
151 | N#Cc1ccc(COC(=O)NC(=N)N)c(F)c1N1CCN(c2ccccc2F)CC1 [Example 1.059]
55 | Cc1ccc(N2CCN(c3c(C#N)ccc(COC(=O)NC(=N)N)c3F)CC2)nn1 [Example 1.068]
85 | Cc1cnc(C2=CCN(c3c(C#N)ccc(COC(=O)NC(=N)N)c3F)CC2)nc1 [Example 1.075]
34 | N#Cc1ccc(COC(=O)NC(=N)N)c(F)c1N1CC=C(c2ncccn2)CC1 [Example 1.063]
889 | N#Cc1ccc(COC(=O)NC(=N)N)c(F)c1N1CCC(N2CCCC2=O)CC1 [Example 1.088]
20 | Cc1cnc(C2CCN(c3c(C#N)ccc(COC(=O)NC(=N)N)c3F)CC2)o1 [Example 2.005]
27 | N#Cc1ccc(COC(=O)NC(=N)N)c(F)c1N1CCN(c2ncc(F)cn2)CC1 [Example 1.069]
56 | N#Cc1ccc(COC(=O)NC(=N)N)c(F)c1N1CCC(N2CCC(O)CC2)CC1 [Example 1.089]
93 | N#Cc1ccc(COC(=O)NC(=N)N)c(F)c1N1CCC2(CC1)CC(=O)Nc1ncccc12 [Example 2.002]

IC50 [nM] | SMILES
3 | Cc1cc(N2CCN(c3c(C#N)ccc(COC(=O)NC(=N)N)c3F)CC2)ccn1 [Example 2.004]
128 | COc1ccc(N2CCN(c3c(C#N)ccc(COC(=O)NC(=N)N)c3F)CC2)cc1 [Example 1.074]
7 | N#Cc1ccc(COC(=O)NC(=N)N)c(F)c1N1CCN(c2ccncc2)CC1 [Example 2.003]
64 | CC1CN(c2c(C#N)ccc(COC(=O)NC(=N)N)c2F)CCN1c1ccccc1 (centres unmarked) [Example 1.070]
696 | CN1CCN(C2CCN(c3c(C#N)ccc(COC(=O)NC(=N)N)c3F)CC2)C(=O)C1 [Example 1.062]
115 | N#Cc1ccc(N2CCN(c3c(C#N)ccc(COC(=O)NC(=N)N)c3F)CC2)nc1 [Example 1.055]
20 | CCOc1ccc(C2CCN(c3c(C#N)ccc(COC(=O)NC(=N)N)c3F)CC2)cn1 [Example 1.080]
45 | N#Cc1ccc(COC(=O)NC(=N)N)c(F)c1N1CCN(c2ncccn2)CC1 [Example 1.081]
71 | N#Cc1ccc(COC(=O)NC(=N)N)c(F)c1N1CCN(c2ccc(C(N)=O)cc2)CC1 [Example 1.058]
7 | N#Cc1ccc(COC(=O)NC(=N)N)c(F)c1N1CCN(c2ccc(Cl)cn2)CC1 [Example 1.078]
15 | COc1cnc(N2CCN(c3c(C#N)ccc(COC(=O)NC(=N)N)c3F)CC2)nc1 [Example 1.056]
393 | N#Cc1ccc(N2CCN(c3cc(COC(=O)NC(=N)N)c(F)cc3C#N)CC2)cc1 [Example 3.001]
20 | Cc1cccc(N2CCN(c3c(C#N)ccc(COC(=O)NC(=N)N)c3F)CC2)c1 [Example 1.066]
334 | CCc1ccc(N2CCN(c3c(C#N)ccc(COC(=O)NC(=N)N)c3F)CC2)cc1 [Example 1.060]
33 | CN(C)c1ccc(N2CCN(c3c(C#N)ccc(COC(=O)NC(=N)N)c3F)CC2)nn1 [Example 1.064]
131 | N#Cc1ccc(COC(=O)NC(=N)N)c(F)c1N1CCN(c2ccccc2)C(=O)C1 [Example 1.065]
211 | Cc1ccc(C2CCN(c3c(C#N)ccc(COC(=O)NC(=N)N)c3F)CC2)cc1 [Example 1.072]
149 | Cc1ccc(N2CCN(c3c(C#N)ccc(COC(=O)NC(=N)N)c3F)CC2)cc1C [Example 1.086]
